Test results published in ChEMBL document CHEMBL5465560, “Selectivity Literature for EUbOPEN Chemogenomic Library” (2024).
Values belong to the compound of their own block, whether it stands above or below them.

What was measured:
[1] = target: cAMP-dependent protein kinase catalytic subunit alpha (Homo sapiens, UniProt P17612); experiment: Selectivity interaction (Upstate Kinase Profiler service (Millipore)) EUB0000056c PRKACA; settings: at 1 µM
[2] = target: Death-associated protein kinase 1 (Homo sapiens, UniProt P53355); experiment: Selectivity interaction (Upstate Kinase Profiler service (Millipore)) EUB0000056c DAPK1; settings: at 1 µM
[3] = target: Calcium/calmodulin-dependent protein kinase type 1D (Homo sapiens) (UniProt Q8IU85); experiment: Selectivity interaction (ActivX KiNativ screen (kinase selectivity in THP-1 cell lysates)) EUB0000639a CAMK1D; format: subcellular; settings: lysate, at 0.2 µM
[4] = target: CDK12/Cyclin K (Homo sapiens) (UniProt O75909+Q9NYV4); experiment: Selectivity interaction (ProQinase) EUB0000171b CDK12; format: protein-complex assay; settings: at 1 µM
[5] = target: T1, Mitogen-activated protein kinase 13 (Homo sapiens) (UniProt O15264); experiment: Selectivity interaction (Kinase panel (DSF assay)) EUB0001559a MAPK13
T1 sequence (whole entry): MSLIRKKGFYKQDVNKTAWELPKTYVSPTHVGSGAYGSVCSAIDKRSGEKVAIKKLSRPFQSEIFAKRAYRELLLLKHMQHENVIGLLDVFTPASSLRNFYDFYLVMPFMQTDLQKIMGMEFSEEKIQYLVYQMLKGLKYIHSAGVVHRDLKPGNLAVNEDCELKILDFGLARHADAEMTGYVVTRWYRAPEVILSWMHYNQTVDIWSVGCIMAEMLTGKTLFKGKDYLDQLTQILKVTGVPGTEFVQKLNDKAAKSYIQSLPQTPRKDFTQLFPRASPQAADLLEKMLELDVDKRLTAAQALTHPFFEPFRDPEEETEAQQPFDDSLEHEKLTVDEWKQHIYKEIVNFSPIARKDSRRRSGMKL

[6] = test system: Hepatocyte growth factor receptor (Homo sapiens), P08581 [Y1235D]; settings: at 10 µM
[7] = target: Serine/threonine-protein kinase SIK2 (Homo sapiens) (UniProt Q9H0K1); experiment: Selectivity interaction (KinomeScan (DiscoverX)) EUB0001049a SIK2; settings: at 1 µM
[8] = target: Protein kinase C theta type (Homo sapiens, UniProt Q04759); experiment: Selectivity interaction (Millipore kinase profiler) EUB0000124b PRKCQ; settings: at 10 µM
[9] = target: Ephrin type-A receptor 5 (Homo sapiens) (UniProt P54756); experiment: Selectivity interaction (KinomeScan (DiscoverX)) EUB0000045b EPHA5
[10] = target: Receptor tyrosine-protein kinase erbB-3 (Homo sapiens) (UniProt P21860); experiment: Selectivity interaction (KinomeScan (DiscoverX)) EUB0000045b ERBB3
[11] = target: Bone morphogenetic protein receptor type-1A (Homo sapiens, UniProt P36894); experiment: Selectivity interaction (KinomeScan (DiscoverX)) EUB0001079a BMPR1A; settings: at 1 µM
[12] = target: Activin receptor type-1-like (Homo sapiens) (UniProt P37023); experiment: Selectivity interaction (KinomeScan (DiscoverX)) EUB0001079a ACVRL1; settings: at 1 µM
[13] = target: T2, STE20-related kinase adapter protein alpha (Homo sapiens) (UniProt Q7RTN6); experiment: Selectivity interaction (Kinase panel (KiNativ target engagement assay in Jurkat cells)) EUB0001635a STRADA; format: cell-based; settings: Selectivity number of off-targets 0.0, Selectivity number of targets 233.0, Source Knowledge https://www.sciencedirect.com/science/article/pii/S2451945619300674?via%3Dihub, at 1 µM
T2 sequence (whole entry): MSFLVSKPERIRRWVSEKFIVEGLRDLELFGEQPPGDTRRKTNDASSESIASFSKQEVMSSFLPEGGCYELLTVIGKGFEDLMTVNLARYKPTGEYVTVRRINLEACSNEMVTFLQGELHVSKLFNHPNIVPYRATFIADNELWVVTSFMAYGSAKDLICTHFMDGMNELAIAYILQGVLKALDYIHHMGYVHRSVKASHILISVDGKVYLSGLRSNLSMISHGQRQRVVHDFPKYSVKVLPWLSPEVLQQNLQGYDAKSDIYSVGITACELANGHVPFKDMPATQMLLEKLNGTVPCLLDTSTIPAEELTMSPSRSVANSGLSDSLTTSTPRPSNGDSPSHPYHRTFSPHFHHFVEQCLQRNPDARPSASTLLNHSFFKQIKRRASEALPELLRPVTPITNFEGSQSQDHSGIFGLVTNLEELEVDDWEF

[14] = target: T3, Protein kinase C iota type (Homo sapiens) (UniProt P41743); settings: at 10 µM
T3 sequence (whole entry): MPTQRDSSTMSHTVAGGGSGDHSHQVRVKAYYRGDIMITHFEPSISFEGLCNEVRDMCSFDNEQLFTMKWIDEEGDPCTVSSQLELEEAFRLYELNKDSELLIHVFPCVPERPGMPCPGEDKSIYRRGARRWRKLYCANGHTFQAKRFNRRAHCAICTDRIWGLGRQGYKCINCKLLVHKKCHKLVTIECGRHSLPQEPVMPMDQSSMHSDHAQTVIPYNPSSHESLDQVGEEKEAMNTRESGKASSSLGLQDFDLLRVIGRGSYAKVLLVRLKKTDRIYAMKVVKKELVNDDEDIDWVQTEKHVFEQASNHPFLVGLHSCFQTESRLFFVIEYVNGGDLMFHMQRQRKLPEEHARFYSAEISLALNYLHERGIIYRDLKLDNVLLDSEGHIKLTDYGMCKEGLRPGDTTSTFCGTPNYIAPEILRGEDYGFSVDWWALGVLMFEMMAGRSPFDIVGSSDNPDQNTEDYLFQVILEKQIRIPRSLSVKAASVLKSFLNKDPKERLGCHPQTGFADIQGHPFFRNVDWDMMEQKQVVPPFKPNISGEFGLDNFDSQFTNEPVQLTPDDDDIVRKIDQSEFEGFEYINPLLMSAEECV

[15] = target: Mitogen-activated protein kinase kinase kinase kinase 1 (Homo sapiens) (UniProt Q92918); experiment: Selectivity interaction (KinomeScan (DiscoverX)) EUB0000618a MAP4K1; settings: at 10 µM

Ephrin type-A receptor 5 (Homo sapiens), sequence (P54756 whole entry): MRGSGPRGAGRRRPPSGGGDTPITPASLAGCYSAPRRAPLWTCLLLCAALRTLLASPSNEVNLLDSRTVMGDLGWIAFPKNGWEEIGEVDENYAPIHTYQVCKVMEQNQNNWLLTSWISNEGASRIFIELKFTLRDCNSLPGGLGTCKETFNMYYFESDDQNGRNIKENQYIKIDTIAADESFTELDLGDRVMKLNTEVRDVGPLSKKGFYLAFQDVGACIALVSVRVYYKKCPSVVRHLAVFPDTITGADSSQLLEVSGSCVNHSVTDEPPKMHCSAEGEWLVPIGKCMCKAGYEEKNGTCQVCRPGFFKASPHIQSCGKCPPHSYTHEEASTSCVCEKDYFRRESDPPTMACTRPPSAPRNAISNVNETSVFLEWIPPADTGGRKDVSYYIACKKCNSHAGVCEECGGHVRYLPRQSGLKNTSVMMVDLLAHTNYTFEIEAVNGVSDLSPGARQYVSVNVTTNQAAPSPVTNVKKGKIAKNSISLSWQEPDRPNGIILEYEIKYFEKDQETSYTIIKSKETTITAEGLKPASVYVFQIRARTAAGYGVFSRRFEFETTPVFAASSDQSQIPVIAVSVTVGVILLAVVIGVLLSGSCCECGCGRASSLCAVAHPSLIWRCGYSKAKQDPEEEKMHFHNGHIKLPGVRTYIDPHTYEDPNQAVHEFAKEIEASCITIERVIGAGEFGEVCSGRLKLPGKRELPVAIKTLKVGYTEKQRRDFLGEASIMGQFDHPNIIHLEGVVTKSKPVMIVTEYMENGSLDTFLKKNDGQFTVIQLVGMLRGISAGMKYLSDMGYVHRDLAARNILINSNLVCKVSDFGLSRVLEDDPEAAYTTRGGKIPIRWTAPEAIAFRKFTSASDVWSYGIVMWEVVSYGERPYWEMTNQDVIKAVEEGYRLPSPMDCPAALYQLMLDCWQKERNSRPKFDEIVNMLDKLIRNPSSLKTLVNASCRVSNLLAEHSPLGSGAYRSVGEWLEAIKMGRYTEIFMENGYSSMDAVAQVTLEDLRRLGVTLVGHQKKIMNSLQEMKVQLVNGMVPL
Receptor tyrosine-protein kinase erbB-3 (Homo sapiens), sequence (P21860 whole entry): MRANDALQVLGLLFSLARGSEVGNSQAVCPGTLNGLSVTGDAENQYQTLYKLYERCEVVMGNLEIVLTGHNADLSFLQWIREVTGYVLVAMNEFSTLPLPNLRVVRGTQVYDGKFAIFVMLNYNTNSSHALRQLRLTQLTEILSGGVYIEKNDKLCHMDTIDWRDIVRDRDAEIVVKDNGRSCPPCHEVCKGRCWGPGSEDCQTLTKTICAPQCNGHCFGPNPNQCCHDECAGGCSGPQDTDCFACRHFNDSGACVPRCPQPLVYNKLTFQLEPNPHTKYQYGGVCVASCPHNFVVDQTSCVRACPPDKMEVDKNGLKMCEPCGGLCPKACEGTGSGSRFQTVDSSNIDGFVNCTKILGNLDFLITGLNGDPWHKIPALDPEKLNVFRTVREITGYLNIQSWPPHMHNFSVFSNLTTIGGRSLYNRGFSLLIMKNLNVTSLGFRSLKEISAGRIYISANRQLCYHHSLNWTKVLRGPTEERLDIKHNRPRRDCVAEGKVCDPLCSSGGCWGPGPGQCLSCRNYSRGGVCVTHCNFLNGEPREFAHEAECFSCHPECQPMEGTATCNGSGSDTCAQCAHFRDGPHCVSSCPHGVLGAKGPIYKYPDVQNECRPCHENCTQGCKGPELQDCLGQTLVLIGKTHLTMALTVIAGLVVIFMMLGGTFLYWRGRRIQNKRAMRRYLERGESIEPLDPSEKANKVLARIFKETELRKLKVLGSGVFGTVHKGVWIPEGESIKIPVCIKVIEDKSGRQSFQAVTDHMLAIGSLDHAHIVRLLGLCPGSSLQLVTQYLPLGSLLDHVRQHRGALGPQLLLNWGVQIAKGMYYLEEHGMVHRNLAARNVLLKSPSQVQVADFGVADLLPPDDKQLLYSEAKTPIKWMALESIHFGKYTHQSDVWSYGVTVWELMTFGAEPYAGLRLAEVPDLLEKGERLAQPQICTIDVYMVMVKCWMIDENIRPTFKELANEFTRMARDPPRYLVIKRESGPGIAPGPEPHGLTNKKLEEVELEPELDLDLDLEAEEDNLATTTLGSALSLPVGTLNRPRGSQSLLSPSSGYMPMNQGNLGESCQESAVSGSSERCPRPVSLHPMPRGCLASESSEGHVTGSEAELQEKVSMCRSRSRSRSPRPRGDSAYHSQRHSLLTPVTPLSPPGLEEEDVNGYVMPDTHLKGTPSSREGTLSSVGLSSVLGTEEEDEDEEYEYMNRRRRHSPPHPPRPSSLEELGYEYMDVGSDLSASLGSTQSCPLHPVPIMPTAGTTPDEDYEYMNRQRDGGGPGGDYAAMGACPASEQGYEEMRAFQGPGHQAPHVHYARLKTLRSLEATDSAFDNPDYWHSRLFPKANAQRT
Protein kinase C theta type, sequence (Q04759 whole entry, looked up): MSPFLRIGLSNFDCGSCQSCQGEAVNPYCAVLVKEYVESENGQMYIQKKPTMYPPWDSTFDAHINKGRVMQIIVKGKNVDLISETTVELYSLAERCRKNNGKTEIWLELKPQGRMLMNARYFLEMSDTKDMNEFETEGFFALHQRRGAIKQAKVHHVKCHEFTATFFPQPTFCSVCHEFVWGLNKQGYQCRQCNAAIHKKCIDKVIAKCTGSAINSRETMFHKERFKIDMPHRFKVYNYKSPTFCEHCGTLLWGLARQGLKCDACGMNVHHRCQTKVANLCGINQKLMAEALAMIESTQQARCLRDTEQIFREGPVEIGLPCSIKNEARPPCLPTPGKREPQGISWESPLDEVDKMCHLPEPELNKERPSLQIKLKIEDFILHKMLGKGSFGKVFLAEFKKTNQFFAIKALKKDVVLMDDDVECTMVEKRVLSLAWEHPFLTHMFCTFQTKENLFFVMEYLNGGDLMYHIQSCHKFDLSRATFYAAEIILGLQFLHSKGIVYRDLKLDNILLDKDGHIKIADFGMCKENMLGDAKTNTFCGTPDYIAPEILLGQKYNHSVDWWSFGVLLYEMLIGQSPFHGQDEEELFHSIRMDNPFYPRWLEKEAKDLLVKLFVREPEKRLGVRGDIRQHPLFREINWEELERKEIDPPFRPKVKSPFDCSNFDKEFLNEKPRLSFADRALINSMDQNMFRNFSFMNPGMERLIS
Calcium/calmodulin-dependent protein kinase type 1D (Homo sapiens), sequence (Q8IU85 whole entry, looked up): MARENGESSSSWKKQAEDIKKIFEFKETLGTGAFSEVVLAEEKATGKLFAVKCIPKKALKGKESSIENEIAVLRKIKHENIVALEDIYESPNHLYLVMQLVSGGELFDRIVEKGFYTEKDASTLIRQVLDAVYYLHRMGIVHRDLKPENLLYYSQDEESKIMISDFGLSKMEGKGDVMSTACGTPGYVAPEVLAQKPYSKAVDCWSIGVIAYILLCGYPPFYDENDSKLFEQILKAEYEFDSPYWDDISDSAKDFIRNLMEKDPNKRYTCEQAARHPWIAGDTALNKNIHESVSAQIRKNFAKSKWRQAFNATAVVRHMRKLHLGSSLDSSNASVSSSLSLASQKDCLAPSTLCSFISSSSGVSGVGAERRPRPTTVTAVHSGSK
Serine/threonine-protein kinase SIK2 (Homo sapiens), sequence (Q9H0K1 whole entry, looked up): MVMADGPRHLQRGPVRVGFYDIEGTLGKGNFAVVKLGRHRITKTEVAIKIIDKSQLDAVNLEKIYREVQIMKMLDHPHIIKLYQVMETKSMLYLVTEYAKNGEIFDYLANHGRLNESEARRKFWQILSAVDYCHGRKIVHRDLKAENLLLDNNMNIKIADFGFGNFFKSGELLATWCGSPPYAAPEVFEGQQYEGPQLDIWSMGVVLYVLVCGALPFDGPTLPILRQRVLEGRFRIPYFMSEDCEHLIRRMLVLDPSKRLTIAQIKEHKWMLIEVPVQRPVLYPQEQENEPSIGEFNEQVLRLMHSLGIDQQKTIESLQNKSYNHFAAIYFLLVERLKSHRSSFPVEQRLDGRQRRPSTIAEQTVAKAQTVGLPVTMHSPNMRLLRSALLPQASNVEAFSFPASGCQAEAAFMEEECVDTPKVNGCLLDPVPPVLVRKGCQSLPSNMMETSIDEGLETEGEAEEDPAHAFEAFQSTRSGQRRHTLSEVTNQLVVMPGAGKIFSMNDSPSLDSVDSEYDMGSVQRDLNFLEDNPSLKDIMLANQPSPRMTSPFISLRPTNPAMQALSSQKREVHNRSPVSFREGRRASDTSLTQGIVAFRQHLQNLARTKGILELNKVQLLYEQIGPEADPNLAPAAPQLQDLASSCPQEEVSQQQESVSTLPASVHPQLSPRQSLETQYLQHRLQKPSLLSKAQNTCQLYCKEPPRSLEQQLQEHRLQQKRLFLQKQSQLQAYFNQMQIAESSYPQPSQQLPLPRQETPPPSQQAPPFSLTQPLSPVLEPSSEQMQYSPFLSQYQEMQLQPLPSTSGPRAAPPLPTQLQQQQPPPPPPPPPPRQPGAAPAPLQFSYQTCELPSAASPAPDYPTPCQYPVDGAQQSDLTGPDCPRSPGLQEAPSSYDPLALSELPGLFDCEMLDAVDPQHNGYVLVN
Bone morphogenetic protein receptor type-1A, sequence (P36894 whole entry): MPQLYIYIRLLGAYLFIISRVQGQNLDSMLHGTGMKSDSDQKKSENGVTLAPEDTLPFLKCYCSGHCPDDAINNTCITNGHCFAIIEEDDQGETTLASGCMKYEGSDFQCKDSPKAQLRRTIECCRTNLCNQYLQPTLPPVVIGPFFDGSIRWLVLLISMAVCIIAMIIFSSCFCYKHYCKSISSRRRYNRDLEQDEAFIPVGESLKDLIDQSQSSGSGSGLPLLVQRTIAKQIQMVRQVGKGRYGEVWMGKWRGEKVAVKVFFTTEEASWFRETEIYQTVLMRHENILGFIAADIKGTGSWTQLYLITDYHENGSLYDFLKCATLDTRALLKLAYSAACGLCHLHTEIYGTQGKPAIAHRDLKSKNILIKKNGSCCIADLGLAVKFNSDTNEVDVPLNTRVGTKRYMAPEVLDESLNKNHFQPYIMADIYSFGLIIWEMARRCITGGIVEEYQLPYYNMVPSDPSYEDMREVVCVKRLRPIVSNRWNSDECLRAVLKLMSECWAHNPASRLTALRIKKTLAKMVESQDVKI

- % of inhibition [1]: 14%
SMILES: Cc1ccc(-c2ccc3c(ccc4sc5c(c43)NC[C@@H](C)NC5=O)n2)cn1
- % of inhibition [2]: 11%

- % of inhibition [3]: 5.2%
SMILES: CC[C@@H]1[C@H](F)C(=O)N[C@@H]1COc1nccc2cc(C(N)=O)c(OC)cc12 [ZIMLOVISERTIB]

- % of control [4]: 82%
SMILES: C=CC(=O)Nc1cccc(C(=O)Nc2ccc(Nc3cc(-c4[nH]c(SC)nc4C)ccn3)cc2)c1

- dTM [5]: 1.1 K
SMILES: CN(C(=O)c1cnn2cccnc12)c1cc2c(cc1N1CCOCC1)C(=O)N(C[C@@H](F)C(C)(C)O)C2

SMILES: COCC(=O)NC/C=C/c1ccc2ncnc(Nc3ccc(Oc4ccc(C)nc4)c(C)c3)c2c1 [CP-724714]
- % of control [6]: 81%

SMILES: COc1cc(Nc2nc(C)cc(-c3cnn4nc(OC)ccc34)n2)cc(C(F)(F)F)c1
- % of control [7]: 100%

- % of control [8]: 114%
SMILES: CC(=O)Nc1cccc(-n2c(=O)n(C3CC3)c(=O)c3c(Nc4ccc(I)cc4F)n(C)c(=O)c(C)c32)c1

SMILES: C=CC(=O)Nc1cc(-n2c(=O)ccc3cnc4ccc(-c5ccc(NS(C)(=O)=O)cc5)cc4c32)ccc1C
- % of control ([9]; at 1 µM): 100%
- % of control ([9]; at 10 µM): 97%
- % of control ([10]; at 1 µM): 100%
- % of control ([10]; at 10 µM): 100%

SMILES: Nc1cnc(N2CCc3cc(S(=O)(=O)Nc4c(F)cc(Cl)cc4F)cc(N4CCCC4=O)c32)nc1 [TP-020n]
- % of control [11]: 91%
- % of control [12]: 86%

SMILES: C=CC(=O)Nc1ccc(C(=O)Nc2[nH]nc3c2CN(C(=O)N[C@H](CN(C)C)c2ccccc2)C3(C)C)cc1
- % of engagement [13]: -20.7%

SMILES: Cc1cc([C@@H](C)Nc2ccccc2C(=O)O)c2nc(N3CCOCC3)cc(=O)n2c1 [AZD-6482]
- % of control [14]: 100%

SMILES: O[C@H]1CC[C@H](Nc2ncc3nc(Nc4c(F)cc(F)cc4F)n([C@H]4CCOC4)c3n2)CC1
- % of control [15]: 83%
